Reference: ChEMBL document CHEMBL4825753 (J Med Chem, 2021)

Legend:
[1] = molecular target: T1, Tyrosine-protein kinase receptor TYRO3 (Homo sapiens, UniProt Q06418); test: Inhibition of FLAG-tagged Tyro3 (unknown origin) transfected in Cos-7 cells assessed as phosphorylation level incubated for 1 hr by ELISA; type: cell-based
T1 sequence (Q06418 whole entry): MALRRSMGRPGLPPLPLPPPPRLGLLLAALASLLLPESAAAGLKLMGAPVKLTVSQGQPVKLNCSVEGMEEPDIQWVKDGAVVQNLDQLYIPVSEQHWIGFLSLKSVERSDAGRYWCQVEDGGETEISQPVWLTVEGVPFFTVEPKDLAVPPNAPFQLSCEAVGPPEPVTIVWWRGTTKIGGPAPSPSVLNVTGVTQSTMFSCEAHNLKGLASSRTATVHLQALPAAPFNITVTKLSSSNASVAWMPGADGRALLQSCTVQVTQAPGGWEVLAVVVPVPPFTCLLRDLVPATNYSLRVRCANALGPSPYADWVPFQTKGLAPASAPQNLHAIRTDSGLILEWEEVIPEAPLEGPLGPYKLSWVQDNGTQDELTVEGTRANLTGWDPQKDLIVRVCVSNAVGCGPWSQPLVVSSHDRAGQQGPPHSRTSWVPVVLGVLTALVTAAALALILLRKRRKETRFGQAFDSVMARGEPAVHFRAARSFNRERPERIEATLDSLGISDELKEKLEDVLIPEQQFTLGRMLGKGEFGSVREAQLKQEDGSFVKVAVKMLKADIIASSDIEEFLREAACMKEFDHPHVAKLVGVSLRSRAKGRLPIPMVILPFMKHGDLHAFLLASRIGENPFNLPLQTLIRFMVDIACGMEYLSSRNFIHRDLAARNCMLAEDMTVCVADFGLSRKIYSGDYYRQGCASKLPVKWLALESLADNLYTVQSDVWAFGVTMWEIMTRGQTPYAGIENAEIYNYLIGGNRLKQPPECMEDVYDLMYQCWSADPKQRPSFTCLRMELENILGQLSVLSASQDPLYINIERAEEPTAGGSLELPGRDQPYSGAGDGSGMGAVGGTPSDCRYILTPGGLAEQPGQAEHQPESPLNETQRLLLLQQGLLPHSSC

[2] = Induction efferocytosis in human PBMC assessed as CD14-positive monocytes
[3] = molecular target: T2, Receptor-type tyrosine-protein kinase FLT3 (Homo sapiens, UniProt P36888); test: Inhibition of FLAG-tagged FLT3 (unknown origin) transfected in Cos-7 cells assessed as phosphorylation level incubated for 1 hr by ELISA; type: cell-based
T2 sequence (P36888 whole entry): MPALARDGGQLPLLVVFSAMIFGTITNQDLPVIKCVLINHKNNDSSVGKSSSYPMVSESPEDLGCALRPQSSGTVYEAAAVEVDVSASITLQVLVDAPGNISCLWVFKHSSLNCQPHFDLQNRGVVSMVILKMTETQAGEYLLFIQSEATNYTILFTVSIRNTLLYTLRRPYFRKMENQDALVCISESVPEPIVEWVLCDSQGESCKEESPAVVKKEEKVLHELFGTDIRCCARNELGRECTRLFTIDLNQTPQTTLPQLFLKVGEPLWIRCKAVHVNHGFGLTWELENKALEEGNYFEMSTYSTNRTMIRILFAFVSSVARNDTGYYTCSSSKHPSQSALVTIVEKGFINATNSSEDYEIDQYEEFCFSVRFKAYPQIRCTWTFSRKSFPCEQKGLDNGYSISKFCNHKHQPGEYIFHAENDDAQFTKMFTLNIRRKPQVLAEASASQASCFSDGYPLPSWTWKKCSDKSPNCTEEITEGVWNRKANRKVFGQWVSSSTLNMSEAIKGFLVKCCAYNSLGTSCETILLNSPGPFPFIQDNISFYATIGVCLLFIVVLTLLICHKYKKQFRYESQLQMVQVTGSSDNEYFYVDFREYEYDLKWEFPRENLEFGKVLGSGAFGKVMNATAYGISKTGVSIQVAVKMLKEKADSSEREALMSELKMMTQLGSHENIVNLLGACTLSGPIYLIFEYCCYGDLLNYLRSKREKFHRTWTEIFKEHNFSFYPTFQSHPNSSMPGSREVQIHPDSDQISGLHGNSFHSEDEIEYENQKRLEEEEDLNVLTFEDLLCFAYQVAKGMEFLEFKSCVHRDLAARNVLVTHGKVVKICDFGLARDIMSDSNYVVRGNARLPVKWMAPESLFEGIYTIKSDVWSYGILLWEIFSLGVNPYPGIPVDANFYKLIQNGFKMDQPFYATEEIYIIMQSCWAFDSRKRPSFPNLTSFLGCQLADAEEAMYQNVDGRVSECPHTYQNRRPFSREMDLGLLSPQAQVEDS

[4] = Lipophilicity, log D of the compound at pH 7.4; type: physicochemical; details: buffer
[5] = AUC in C57BL/6J mouse at 100 mg/kg, po measured up to 24 hrs; type: ADME, organism-based; set-up: route oral, dose 100 mg/kg, time <=24; details: in vivo
[6] = molecular target: T3, Tyrosine-protein kinase receptor UFO (Homo sapiens, UniProt P30530); test: Inhibition of FLAG-tagged AXL (unknown origin) transfected in Cos-7 cells assessed as phosphorylation level incubated for 1 hr by ELISA; type: cell-based
T3 sequence (P30530 whole entry): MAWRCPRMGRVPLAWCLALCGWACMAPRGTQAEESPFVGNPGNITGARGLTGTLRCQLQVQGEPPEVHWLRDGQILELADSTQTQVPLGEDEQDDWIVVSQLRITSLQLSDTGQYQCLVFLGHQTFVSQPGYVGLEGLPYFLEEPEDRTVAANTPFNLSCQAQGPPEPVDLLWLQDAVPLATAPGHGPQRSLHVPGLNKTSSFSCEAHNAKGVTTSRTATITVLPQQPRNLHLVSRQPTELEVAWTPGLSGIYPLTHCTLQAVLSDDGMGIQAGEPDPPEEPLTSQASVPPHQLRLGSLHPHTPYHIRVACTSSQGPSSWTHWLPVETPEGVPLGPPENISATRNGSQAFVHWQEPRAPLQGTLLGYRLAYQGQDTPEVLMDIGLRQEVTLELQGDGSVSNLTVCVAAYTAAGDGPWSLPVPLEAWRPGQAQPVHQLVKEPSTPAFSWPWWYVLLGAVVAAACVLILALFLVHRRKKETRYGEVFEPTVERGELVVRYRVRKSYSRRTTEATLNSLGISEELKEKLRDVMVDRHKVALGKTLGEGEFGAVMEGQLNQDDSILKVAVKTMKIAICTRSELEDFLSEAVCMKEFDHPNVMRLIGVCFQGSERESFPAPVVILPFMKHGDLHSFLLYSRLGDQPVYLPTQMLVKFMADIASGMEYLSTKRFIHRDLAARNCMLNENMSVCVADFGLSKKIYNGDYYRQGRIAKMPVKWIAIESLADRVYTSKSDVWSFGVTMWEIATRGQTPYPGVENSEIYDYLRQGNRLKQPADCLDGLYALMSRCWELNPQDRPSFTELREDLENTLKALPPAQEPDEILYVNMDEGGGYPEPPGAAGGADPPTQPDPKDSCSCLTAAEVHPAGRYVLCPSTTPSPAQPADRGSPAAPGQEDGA

[7] = molecular target: T2, Receptor-type tyrosine-protein kinase FLT3; test: Inhibition of FLT3 (unknown origin) by LC-MS analysis

Structure (SMILES) | IC50 [1] [µM] | pIC50 [2] | IC50 [3] [µM] | logD [4] | AUC at 24 h [5] [µM·h] | IC50 [6] [µM] | IC50 [7] [µM]
Cc1cc(-c2c(C)nn(C)c2C)cnc1-c1nnc(N(C)Cc2ccc3ncc(-c4ccc(CN(C)C)cc4)n3c2)o1 | > 31.6 | 7.6 | > 31.6 | 2.9 | 71 | 0.1 | 
Cc1cc(-c2c(C)nn(C)c2C)ccc1-c1nnc(N(C)Cc2ccc3nccn3c2)o1 | > 31.6 | 6.8 | 20 | 3.7 | 295 | 0.398 | 15.8
Cc1cc(-c2c(C)nn(C)c2C)cnc1-c1nnc(N(C)Cc2ccc3nccn3c2)o1 | > 31.6 | 6 | > 31.6 | 2.8 |  | 6.31 | 20
